Source: patent publication US20230203098A1, “HUMAN TRANSFERRIN RECEPTOR BINDING PEPTIDE” (priority 2020, published 2023)
Where two headings read alike, the source gives them in different places. Where a SMILES comes first, the peptide text is derived from it. Bridges are numbered along the chain shown (N, C = ends). [ ]: non-standard residue; d: D form. The star is where a group is joined. X2 = O=C(O)c1cc(C(=O)*)ccc1-c1c2ccc(=O)cc-2oc2cc(O)ccc12; PEG12 = NCCOCCOCCOCCOCCOCCOCCOCCOCCOCCOCCOCCOCCC(=O)O; NMePhe(3-Cl) = CN[C@@H](Cc1cccc(Cl)c1)C(=O)O; NMeW = CN[C@@H](Cc1c[nH]c2ccccc12)C(=O)O; Lys(N3) = [N-]=[N+]=NCCCC[C@H](N)C(=O)O; NMeY = CN[C@@H](Cc1ccc(O)cc1)C(=O)O; PEG4 = NCCOCCOCCOCCOCCC(=O)O; Nle = CCCC[C@H](N)C(=O)O; Dab = NCC[C@H](N)C(=O)O; Nva = CCC[C@H](N)C(=O)O

Biological target: transferrin receptor (hTfR) (Homo sapiens, UniProt P02786)
Sequence (P02786 whole entry): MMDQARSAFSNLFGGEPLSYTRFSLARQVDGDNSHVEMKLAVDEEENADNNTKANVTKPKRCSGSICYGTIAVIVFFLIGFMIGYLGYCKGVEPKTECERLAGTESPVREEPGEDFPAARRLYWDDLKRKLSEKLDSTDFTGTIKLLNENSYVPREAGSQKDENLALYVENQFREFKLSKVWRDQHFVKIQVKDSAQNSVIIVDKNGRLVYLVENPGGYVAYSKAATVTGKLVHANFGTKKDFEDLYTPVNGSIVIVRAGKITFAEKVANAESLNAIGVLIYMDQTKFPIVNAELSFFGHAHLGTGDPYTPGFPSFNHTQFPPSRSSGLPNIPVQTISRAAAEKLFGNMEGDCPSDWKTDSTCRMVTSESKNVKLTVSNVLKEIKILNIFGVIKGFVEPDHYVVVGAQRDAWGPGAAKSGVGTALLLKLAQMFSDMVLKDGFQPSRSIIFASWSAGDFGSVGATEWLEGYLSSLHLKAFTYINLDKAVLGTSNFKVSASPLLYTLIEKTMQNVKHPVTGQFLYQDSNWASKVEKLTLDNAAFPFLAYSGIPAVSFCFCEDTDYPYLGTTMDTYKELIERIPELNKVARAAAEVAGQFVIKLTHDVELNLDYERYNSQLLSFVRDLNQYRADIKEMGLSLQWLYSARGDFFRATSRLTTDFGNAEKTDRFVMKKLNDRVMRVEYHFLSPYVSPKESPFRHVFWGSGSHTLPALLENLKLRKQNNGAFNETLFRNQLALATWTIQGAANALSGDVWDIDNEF
Test: Intermolecular interaction evaluation test between transferrin receptor (hTfR) and peptide by surface plasmon resonance (SPR)
Type: binding
Procedure, shortened: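 Receptor was Ni-captured and EDC/NHS-fixed on an NTA chip; running buffer HEPES pH 8.0 with NaCl, Tween 20, BSA and 1.0% DMSO.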

[1] = surface plasmon resonance, peptide vs hTfR, read-out: KD value, hTfR binding by SPR (class symbol)
[2] = binding to hTfR by SPR, Table 2 peptides, read-out: KD value (SPR) class
[3] = surface plasmon resonance, hTfR, read-out: KD value for hTfR by SPR (class symbol)
[4] = SPR, peptides, linker-added peptides and FITC conjugates, Patent ID 203-230, read-out: KD

CC[C@H](C)[C@@H]1NC(=O)[C@H](Cc2ccc(O)cc2)NC(=O)[C@H](Cc2ccc(O)cc2)NC(=O)[C@H](CC(N)=O)NC(=O)[C@H](Cc2c[nH]c3ccccc23)N(C)C(=O)[C@H](C(C)C)NC(=O)[C@H](Cc2cccc(Cl)c2)N(C)C(=O)[C@@H]2CCC(=O)NCCCC[C@H](NC(=O)[C@H]([C@@H](C)CC)NC1=O)C(=O)N[C@@H](CCCNC(=N)N)C(=O)N[C@@H](Cc1ccc(O)cc1)C(=O)N(C)[C@@H](Cc1ccc(O)cc1)C(=O)N[C@H](C(N)=O)CSCC(=O)N[C@@H](C)C(=O)N2 [compound 412]
Kd (surface plasmon resonance, peptide vs hTfR, read-out: KD value for hTfR by SPR (class symbol)): 1 to 100 nM

CC[C@H](C)[C@@H]1NC(=O)[C@H](Cc2ccc(O)cc2)NC(=O)[C@H](Cc2ccc(O)cc2)NC(=O)[C@H](CC(N)=O)NC(=O)[C@H](Cc2c[nH]c3ccccc23)NC(=O)[C@H](C(C)C)NC(=O)[C@H](Cc2ccccc2)N(C)C(=O)[C@H](C(C)C)NC(=O)[C@H](C)NC(=O)CSC[C@@H](C(N)=O)NC(=O)[C@H](Cc2ccc(O)cc2)N(C)C(=O)[C@H](Cc2ccc(O)cc2)NC(=O)[C@H](CCCNC(=N)N)NC(=O)[C@H](CCCCN)NC(=O)[C@H]([C@@H](C)CC)NC1=O [compound 293]
Kd [1]: 1 to 100 nM

CCC[C@@H]1NC(=O)[C@H](C)NC(=O)CSC[C@@H](C(=O)NCCOCCOCCOCCOCCC(N)=O)NC(=O)[C@H](Cc2ccc(O)cc2)N(C)C(=O)[C@H](Cc2ccccc2)NC(=O)[C@@H](CCCNC(=N)N)NC(=O)[C@H](CCCNC(=N)N)NC(=O)[C@H]([C@@H](C)CC)NC(=O)[C@H]([C@@H](C)CC)NC(=O)[C@H](Cc2ccc(OC)cc2)NC(=O)[C@H](Cc2ccc(O)cc2)NC(=O)[C@H](CC(N)=O)NC(=O)[C@H](Cc2c[nH]c3ccccc23)N(C)C(=O)[C@H](C(C)C)NC(=O)[C@H](Cc2cccc(Cl)c2)N(C)C1=O [compound 244] ({CH2CO}-A[Nva][NMePhe(3-Cl)]V[NMeW]NYY(Me)IIR[dR]F[NMeY]C[PEG4]-NH2; thioether N-15)
Kd [2]: 1 to 100 nM

CCCC[C@@H]1NC(=O)[C@H]([C@@H](C)CC)NC(=O)[C@H]([C@@H](C)CC)NC(=O)[C@H](Cc2ccc(OC)cc2)NC(=O)[C@H](Cc2ccc(O)cc2)NC(=O)[C@H](CC(N)=O)NC(=O)[C@H](Cc2c[nH]c3ccccc23)N(C)C(=O)[C@H](C(C)C)NC(=O)[C@H](Cc2cccc(Cl)c2)N(C)C(=O)[C@H](C(C)C)NC(=O)[C@H](C)NC(=O)CSC[C@@H](C(=O)NCCOCCOCCOCCOCCC(N)=O)NC(=O)[C@H](Cc2ccc(O)cc2)N(C)C(=O)[C@H](Cc2ccccc2)NC(=O)[C@@H](CCCNC(=N)N)NC1=O [compound 361] ({CH2CO}-AV[NMePhe(3-Cl)]V[NMeW]NYY(Me)II[Nle][dR]F[NMeY]C[PEG4]-NH2; thioether N-15)
Kd [3]: 1 to 100 nM

CC[C@H](C)[C@@H]1NC(=O)[C@H](Cc2ccc(O)cc2)NC(=O)[C@H](Cc2ccc(O)cc2)NC(=O)[C@H](CC(N)=O)NC(=O)[C@H](Cc2c[nH]c3ccccc23)NC(=O)[C@H](C(C)C)NC(=O)[C@H](Cc2ccccc2)NC(=O)[C@H](C(C)C)NC(=O)[C@H](C)NC(=O)CSC[C@@H](C(N)=O)NC(=O)[C@H](Cc2ccc(O)cc2)N(C)C(=O)[C@H](CCCCN)NC(=O)[C@H](CCCNC(=N)N)NC(=O)[C@H](CCCNC(=N)N)NC(=O)[C@H]([C@@H](C)CC)NC1=O [compound 261]
Kd [2]: 1 to 100 nM

CC[C@H](C)[C@@H]1NC(=O)[C@H](Cc2ccc(OC)cc2)NC(=O)[C@H](Cc2ccc(O)cc2)NC(=O)[C@H](CC(N)=O)NC(=O)[C@H](Cc2c[nH]c3ccccc23)N(C)C(=O)[C@H](C(C)C)NC(=O)[C@H](Cc2cccc(Cl)c2)N(C)C(=O)[C@H](C(C)C)NC(=O)[C@H](C)NC(=O)CSC[C@@H](C(=O)NCC(=O)NCC(=O)NCC(=O)NCC(=O)N[C@@H](CO)C(=O)N[C@@H](CO)C(=O)N[C@@H](CS)C(N)=O)NC(=O)[C@H](Cc2ccc(O)cc2)N(C)C(=O)[C@H](Cc2ccccc2)NC(=O)[C@@H](CCCNC(=N)N)NC(=O)[C@H](CCC(=O)O)NC(=O)[C@H]([C@@H](C)CC)NC1=O [compound 348]
Kd [1]: 100 to 1000 nM

CC[C@H](C)[C@@H]1NC(=O)[C@H](Cc2ccc(OCC(=O)O)cc2)NC(=O)[C@H](Cc2ccc(O)cc2)NC(=O)[C@H](CC(N)=O)NC(=O)[C@H](Cc2c[nH]c3ccccc23)N(C)C(=O)[C@H](C(C)C)NC(=O)[C@H](Cc2cccc(Cl)c2)N(C)C(=O)[C@H](C(C)C)NC(=O)[C@H](C)NC(=O)CSC[C@@H](C(N)=O)NC(=O)[C@H](Cc2ccc(O)cc2)N(C)C(=O)[C@H](Cc2ccccc2)NC(=O)[C@@H](CCCNC(=N)N)NC(=O)[C@H](CCCNC(=N)N)NC(=O)[C@H]([C@@H](C)CC)NC1=O [compound 320]
Kd [1]: 1 to 100 nM

CC[C@H](C)[C@@H]1NC(=O)[C@H](Cc2ccc(OC)cc2)NC(=O)[C@H](Cc2ccc(O)cc2)NC(=O)[C@H](CC(N)=O)NC(=O)[C@H](Cc2c[nH]c3ccccc23)N(C)C(=O)[C@H](C(C)C)NC(=O)[C@H](Cc2cccc(Cl)c2)N(C)C(=O)[C@H](C(C)C)NC(=O)[C@H](C)N(C)C(=O)CSC[C@@H](C(N)=O)NC(=O)[C@H](Cc2ccc(O)cc2)N(C)C(=O)[C@H](Cc2ccccc2)NC(=O)[C@H](CCCNC(=N)N)NC(=O)[C@H](CCCNC(=N)N)NC(=O)[C@H]([C@@H](C)CC)NC1=O [compound 214]
Kd [4]: 1 to 100 nM

CC[C@H](C)[C@@H]1NC(=O)[C@H](Cc2ccc(OC)cc2)NC(=O)[C@H](Cc2ccc(O)cc2)NC(=O)[C@H](CC(N)=O)NC(=O)[C@H](Cc2c[nH]c3ccccc23)N(C)C(=O)[C@H](C(C)C)NC(=O)[C@H](Cc2cccc(Cl)c2)N(C)C(=O)[C@H](CCC(=O)O)NC(=O)[C@H](C)NC(=O)CSC[C@@H](C(N)=O)NC(=O)[C@H](Cc2ccc(O)cc2)N(C)C(=O)[C@H](Cc2ccccc2)NC(=O)[C@@H](CCCNC(=N)N)NC(=O)[C@H](C)NC(=O)[C@H]([C@@H](C)CC)NC1=O [compound 226] ({CH2CO}-AE[NMePhe(3-Cl)]V[NMeW]NYY(Me)IIA[dR]F[NMeY]C-NH2; thioether N-15)
Kd [4]: 100 to 1000 nM

CC[C@H](C)[C@@H]1NC(=O)[C@H](Cc2ccc(OC)cc2)NC(=O)[C@H](Cc2ccc(O)cc2)NC(=O)[C@H](CC(N)=O)NC(=O)[C@H](Cc2c[nH]c3ccccc23)N(C)C(=O)[C@H](C(C)C)NC(=O)[C@H](Cc2cccc(Cl)c2)N(C)C(=O)[C@H](C(C)C)NC(=O)[C@H](C)NC(=O)CSC[C@H](C(N)=O)NC(=O)[C@H](Cc2ccc(O)cc2)N(C)C(=O)[C@H](Cc2ccccc2)NC(=O)[C@@H](CCCNC(=N)N)NC(=O)[C@H](CCCNC(=N)N)NC(=O)[C@H]([C@@H](C)CC)NC1=O [compound 396]
Kd [3]: 1 to 100 nM

CC[C@H](C)[C@@H]1NC(=O)[C@H](Cc2ccc(O)cc2)NC(=O)[C@H](Cc2ccc(O)cc2)NC(=O)[C@H](CC(N)=O)NC(=O)[C@H](Cc2c[nH]c3ccccc23)NC(=O)[C@H](C(C)C)NC(=O)[C@H](Cc2c[nH]c3ccccc23)NC(=O)[C@H](C(C)C)NC(=O)[C@H]([C@@H](C)O)NC(=O)[C@H](CCCNC(=N)N)NC(=O)[C@H](CO)NC(=O)[C@H](CC(N)=O)NC(=O)[C@H](C)NC(=O)CSC[C@@H](C(=O)NCCOCCOCCOCCOCCOCCOCCOCCOCCOCCOCCOCCOCCC(=O)N[C@@H](CCCCNC(=O)c2ccc(-c3c4ccc(=O)cc-4oc4cc(O)ccc34)c(C(=O)O)c2)C(N)=O)NC(=O)[C@H](CCCNC(=N)N)NC(=O)[C@H]([C@@H](C)O)NC(=O)[C@H](C(C)C)NC1=O [compound 157] ({CH2CO}-ANSRTVWVWNYYIVTRC[PEG12]K(X2)-NH2; thioether N-17)
Kd (SPR, linker and payload (FITC, VivoTag) conjugates, read-out: KD): 1 to 100 nM

CC[C@H](C)[C@@H]1NC(=O)[C@H](Cc2ccc(OC)cc2)NC(=O)[C@H](Cc2ccc(O)cc2)NC(=O)[C@H](CC(N)=O)NC(=O)[C@H](Cc2c[nH]c3ccccc23)N(C)C(=O)[C@H](C(C)C)NC(=O)[C@H](Cc2cccc(Cl)c2)N(C)C(=O)[C@H](C(C)C)NC(=O)[C@H](C)NC(=O)CSC[C@@H](C(N)=O)NC(=O)[C@H](Cc2ccc(O)cc2)N(C)C(=O)[C@H](Cc2ccccc2)NC(=O)[C@@H](C)NC(=O)[C@H](CCCCN)NC(=O)[C@H]([C@@H](C)CC)NC1=O [compound 372]
Kd [3]: 1 to 100 nM

CC[C@H](C)[C@@H]1NC(=O)[C@H](Cc2ccc(OC)cc2)NC(=O)[C@H](Cc2ccc(O)cc2)NC(=O)[C@H](CC(N)=O)NC(=O)[C@H](Cc2c[nH]c3ccccc23)N(C)C(=O)[C@H](C(C)C)NC(=O)[C@H](Cc2cccc(Cl)c2)N(C)C(=O)[C@H](CCC(=O)O)NC(=O)[C@H](C)NC(=O)CSC[C@@H](C(=O)NCC(=O)N[C@@H](CCCCN=[N+]=[N-])C(N)=O)NC(=O)[C@H](Cc2ccc(O)cc2)N(C)C(=O)[C@H](Cc2ccccc2)NC(=O)[C@H](CCC(=O)O)NC(=O)[C@H](CCCNC(=N)N)NC(=O)[C@H]([C@@H](C)CC)NC1=O [compound 232] ({CH2CO}-AE[NMePhe(3-Cl)]V[NMeW]NYY(Me)IIREF[NMeY]CG[Lys(N3)]-NH2; thioether N-15)
Kd [2]: 1 to 100 nM

CC[C@H](C)[C@@H]1NC(=O)[C@H](Cc2ccc(O)cc2)NC(=O)[C@H](Cc2ccc(O)cc2)NC(=O)[C@H](CC(N)=O)NC(=O)[C@H](Cc2c[nH]c3ccccc23)NC(=O)[C@H](C(C)C)NC(=O)[C@H](Cc2cccc(Cl)c2)N(C)C(=O)[C@H](C(C)C)NC(=O)[C@H](C)NC(=O)CSC[C@@H](C(N)=O)NC(=O)[C@H](Cc2ccc(O)cc2)N(C)C(=O)[C@H](Cc2ccccc2)NC(=O)[C@H](CCCCN)NC(=O)[C@H](CC(=O)O)NC(=O)[C@H]([C@@H](C)CC)NC1=O [compound 307]
Kd [1]: 1 to 100 nM

CC[C@H](C)[C@@H]1NC(=O)[C@H](Cc2ccc(OC)cc2)NC(=O)[C@H](Cc2ccc(O)cc2)NC(=O)[C@H](CC(N)=O)NC(=O)[C@H](Cc2c[nH]c3ccccc23)N(C)C(=O)[C@H](C(C)C)NC(=O)[C@H](Cc2cccc(Cl)c2)N(C)C(=O)[C@H](C(C)C)NC(=O)[C@H](C)NC(=O)CSC[C@@H](C(=O)NCCOCCOCCOCCOCCC(N)=O)NC(=O)[C@H](Cc2ccc(O)cc2)N(C)C(=O)[C@H](Cc2ccccc2)NC(=O)[C@@H](CCCNC(=N)N)NC(=O)[C@H](CCCNC(=N)N)NC(=O)[C@H](CCN)NC1=O [compound 337] ({CH2CO}-AV[NMePhe(3-Cl)]V[NMeW]NYY(Me)I[Dab]R[dR]F[NMeY]C[PEG4]-NH2; thioether N-15)
Kd [1]: 1 to 100 nM
